Read-outs that look alike come from different tables or passages of the source.
How the values were obtained:
[1] = system: normal samples (PBMCs and/or CD34+ cells); test: Viability of normal samples, MTS and Cell Titer Glo (FIG. 4, Table 2); format: cell-based; settings: 24 hours
Procedure: (§1) AML cell lines and normal samples (PBMCs and/or CD34+ cells) were treated for 24 hours with SACLAC (FIG. 4A-7 cell lines) and similar AC inhibitor SABRAC (2-bromo-N-((2S,3R)-1,3-dihydroxyoctadecan-2-yl)acetamide) (FIG. 4B-four cell lines). Viability was assessed by MTS and Cell Titer Glo viability assays. EC50 values (FIG. 4C) were graphed to visualize fold-change between AML and normal cells with treatment of each compound. […] Cells tested for SABRAC were HL60/VCR and OCI-AML2 AML cell lines and two normal PBMC control samples (PBMC1 and PBMC2). The same four cell types were tested for SACLAC, as well as the AML cell line THP-1 and two normal CD34+ cell control samples (CD34+1 and CD34+2).
(§2) Next, we tested the toxicity of SACLAC and a similar published AC inhibitor SABRAC^17 to normal hematopoietic cells to ensure that AML cells are selectively targeted by the compound (FIG. 4A). […] This degree of selectivity was unexpected but extremely important for potential clinical use. […] This remarkable increase in selectivity is a surprising discovery that greatly exceeds the predicted similarity in compound behavior that one may expect with a simple substitution of one halogen for another (Cl for Br).

[2] = system: AML cell lines (HL60/VCR, OCI-AML2, THP-1); test: Viability of AML cell lines, MTS and Cell Titer Glo (FIGS. 2, 4, Table 2); format: cell-based, human; settings: 24 hours
Procedure: Representative human AML cell lines (FIG. 2A; upper and lower panels) HL60/VCR and (FIG. 2B; upper and lower panels) OCI-AML2 were treated with SACLAC for 24 and 48 hours. Viability was assessed by MTS assay at 24 and 48 hours and apoptosis was assessed by flow cytometry at 48 hours. Upper panels represent % viability and lower panels indicate % apoptosis.
as §1, §2

CCCCCCCCCCCCCCC[C@@H](O)[C@H](CO)NC(=O)CBr [SABRAC, 2-bromo-N-((2S,3R)-1,3-dihydroxyoctadecan-2-yl)acetamide, reference compound]
EC50 ([1]; SACLAC: PBMC1, PBMC2, CD34+1, CD34+2, SABRAC: PBMC1, PBMC2, order of samples not given, read-out: EC50, single normal samples (FIG. 4A, 4B)): 0.6 µM | EC50 ([1]; PBMC, 24 h, mean of normal samples (PBMCs and/or CD34+ cells), read-out: EC50 Normal): 0.45 µM | Fold Change ([2]; EC50 Normal versus EC50 AML): 1.25 | EC50 ([2]; Homo sapiens, 24 h, mean of AML cell lines, read-out: EC50 AML): 0.36 µM

— patent US11426371B2, “Compositions and methods for treating cancer” (University of Virginia Patent Foundation, priority 2017, dated 2022)
